These compounds were tested on HEK-Blue IL23 Reporter (assay: HEK-Blue IL-23 STAT3 Reporter Assay). Conditions: HEK-Blue IL23 cells stimulated with IL-23 overnight; SEAP read with QUANTI-Blue at OD655.
Type: cell-based, human
Protocol: HEK-Blue IL23 cells (InvivoGen catalog #HKB-IL23) are designed for the detection of bioactive IL-23 by monitoring the activation of the STAT3 pathway. They were generated by stably introducing the genes for the human IL-23 receptor, STAT3, and the SEAP (secreted embryonic alkaline phosphatase) reporter gene into human HEK293 cell line.
Briefly, around 50,000 cells in DMEM medium supplemented with 10% heat inactivated FBS (˜180 ul) were seeded into each well and incubate for 48 hours at 37° C. with 5% CO2 in air. On day 3, one microliter of compound and 20 ul IL-23 were transferred to the assay plate respectively. The plate was left in the 37° C. incubator overnight. Two microliter of cell supernatant was transferred to a 384-well plate, and 18 ul of resuspended QUANTI-Blue solution was added to each well. SLAP levels were determined using Tecan Spark at OD655.
Cells with no IL23 added were used as Low control. Cells stimulated with IL23 were used as High control. Inhibition rate was calculated with the formula of % inhibition=100*(High control−Treated Well)/(High Control−Low control). IL-23 reporter assay inhibition IC50 was calculated with the equation of Y=Bottom+(Top-Bottom)/(1+10^((Log IC50−X)*HillSlope)).
With `[2H]C([2H])([2H])NC(=O)c1nnc(NC(=O)C2CC2)cc1Nc1nccc2c1S(C)(=O)=NC2` (centres unmarked) [Compound 56] the IC50 was 0.3 nM.
`[2H]C([2H])([2H])NC(=O)c1nnc(NC(=O)C2CC2)cc1Nc1nccc2c1S(C)(=O)=NC2` (centres unmarked) [Compound 57] showed an IC50 of 51.7 nM.
With `[2H]C([2H])([2H])NC(=O)c1nnc(NC(=O)C2CCCC2)cc1Nc1nccc2c1S(C)(=O)=NC2` (centres unmarked) [Compound 90] the IC50 was 4.2 nM.
`[2H]C([2H])([2H])NC(=O)c1nnc(NC(=O)C2CCCC2)cc1Nc1nccc2c1S(C)(=O)=NC2` (centres unmarked) [Compound 91] showed an IC50 of at least 1000 nM.
Work on `[2H]C([2H])([2H])NC(=O)c1nnc(NC(=O)N2CCCC2)cc1Nc1nccc2c1S(C)(=O)=NC2` (centres unmarked) [Compound 92] yielded an IC50 of at least 1000 nM.
For `[2H]C([2H])([2H])NC(=O)c1nnc(NC(=O)N2CCCC2)cc1Nc1nccc2c1S(C)(=O)=NC2` (centres unmarked) [Compound 93], the IC50 was 13.6 nM.
`[2H]C([2H])([2H])NC(=O)c1nnc(NC(=O)[C@H]2CC23CC3)cc1Nc1ncccc1S1(=O)=NCCC1` (some centres unmarked) [Compound 95] gave an IC50 of 19.5 nM.
With `[2H]C([2H])([2H])NC(=O)c1nnc(NC(=O)[C@H]2CC23CC3)cc1Nc1ncccc1S(C)(=O)=NC` (some centres unmarked) [Compound 98] the IC50 was 188 nM.

Same assay, conditions: Homo sapiens, HEK-Blue IL-23, HEK-Blue IL23 cells stimulated with IL-23 overnight; SEAP read with QUANTI-Blue at OD655
`[2H]C([2H])([2H])NC(=O)c1nnc(NC(=O)[C@H]2CC23CC3)cc1Nc1nc2c(cc1S(C)(=O)=O)CNCC2` [Compound 40] gave an IC50 of 54.4 nM.
With `[2H]C([2H])([2H])NC(=O)c1nnc(NC(=O)[C@H]2CC23CC3)cc1Nc1nc2c(cc1S(C)(=O)=O)CN(C)CC2` [Compound 41] the IC50 was 12.7 nM.
Work on `[2H]C([2H])([2H])NC(=O)c1nnc(NC(=O)[C@H]2CC23CC3)cc1Nc1ncc(OCC)cc1S(C)(=O)=O` [Compound 42] yielded an IC50 of 0.58 nM.
For `[2H]C([2H])([2H])NC(=O)c1nnc(NC(=O)[C@H]2CC23CC3)cc1Nc1ncc(OC(C)C)cc1S(C)(=O)=O` [Compound 43], the IC50 was 0.34 nM.
For `[2H]C([2H])([2H])NC(=O)c1nnc(NC(=O)[C@H]2CC23CC3)cc1Nc1ncc(CC)cc1S(C)(=O)=O` [Compound 44], the IC50 was 1 nM.
For `[2H]C([2H])([2H])NC(=O)c1nnc(NC(=O)C2CC2)cc1Nc1ncc(F)cc1S(C)(=O)=O` [Compound 45], the IC50 was 1.5 nM.
Compound `[2H]C([2H])([2H])NC(=O)c1nnc(NC(=O)C2CC2)cc1Nc1ncc(C2CC2)cc1S(C)(=O)=O` [Compound 46] has an IC50 of 0.2 nM.
Compound `[2H]C([2H])([2H])NC(=O)c1nnc(NC(=O)C2CC2)cc1Nc1ncc(C(F)(F)F)cc1S(C)(=O)=O` [Compound 47] has an IC50 of 1.4 nM.
`[2H]C([2H])([2H])NC(=O)c1nnc(NC(=O)C2CC2)cc1Nc1ncc(C)cc1S(C)(=O)=O` [Compound 48] was tested, and the IC50 was 0.46 nM.
With `[2H]C([2H])([2H])NC(=O)c1nnc(C(F)F)cc1Nc1ncccc1S(C)(=O)=O` [Compound 49] the IC50 was over 1000 nM.
`[2H]C([2H])([2H])NC(=O)c1nnc(Nc2cnc(C(C)(C)O)nc2)cc1Nc1ncc(OC)cc1S(C)(=O)=O` [Compound 50] was tested, and the IC50 was 9.3 nM.
For `[2H]C([2H])([2H])NC(=O)c1nnc(NC(=O)NC2CC2)cc1Nc1ncc(OC)cc1S(C)(=O)=O` [Compound 51], the IC50 was 6.2 nM.
In the case of `[2H]C([2H])([2H])NC(=O)c1nnc(NC(=O)C2CC2)cc1Nc1ncc(Cl)cc1S(C)(=O)=O` [Compound 52], the IC50 is reported as 2.5 nM.
`[2H]C([2H])([2H])NC(=O)c1nnc(NC(=O)C2CC2)cc1Nc1ncc(OCCN(C)C)cc1S(C)(=O)=O` [Compound 61] was tested, and the IC50 was 19.9 nM.
`[2H]C([2H])([2H])NC(=O)c1nnc(NC(=O)C2CC2)cc1Nc1ncc(C2(F)COC2)cc1S(C)(=O)=O` [Compound 62] showed an IC50 of 71.9 nM.
In the case of `[2H]C([2H])([2H])NC(=O)c1nnc(NC(=O)C2CC2)cc1Nc1ncc(OC2COC2)cc1S(C)(=O)=O` [Compound 63], the IC50 is reported as 1.9 nM.
`[2H]C([2H])([2H])NC(=O)c1nnc(NC(=O)C2CC2)cc1Nc1ncc(OC(C)C)cc1S(C)(=O)=O` [Compound 64] was tested, and the IC50 was 0.6 nM.
Work on `[2H]C([2H])([2H])NC(=O)c1nnc(NC(=O)C2CC2)cc1Nc1ncc(N2CCOC[C@H]2C)cc1S(C)(=O)=O` [Compound 65] yielded an IC50 of 0.5 nM.
With `[2H]C([2H])([2H])NC(=O)c1nnc(NC(=O)C2CC2)cc1Nc1ncc(OCC(C)(C)O)cc1S(C)(=O)=O` [Compound 66] the IC50 was 5.7 nM.
In the case of `[2H]C([2H])([2H])NC(=O)c1nnc(NC(=O)C2CC2)cc1Nc1ncc(OC[C@H](C)OC)cc1S(C)(=O)=O` [Compound 67], the IC50 is reported as 1 nM.
Compound `[2H]C([2H])([2H])NC(=O)c1nnc(NC(=O)C2CC2)cc1Nc1ncc(OC[C@@H](C)OC)cc1S(C)(=O)=O` [Compound 68] has an IC50 of 0.6 nM.
Work on `[2H]C([2H])([2H])NC(=O)c1nnc(NC(=O)C2CC2)cc1Nc1ncc(O[C@@H](C)COC)cc1S(C)(=O)=O` [Compound 69] yielded an IC50 of 0.2 nM.
`[2H]C([2H])([2H])NC(=O)c1nnc(NC(=O)C2CC2)cc1Nc1ncc(O[C@H](C)COC)cc1S(C)(=O)=O` [Compound 70] gave an IC50 of 1.3 nM.
In the case of `[2H]C([2H])([2H])NC(=O)c1nnc(NC(=O)C2CC2)cc1Nc1nc(C)sc1S(C)(=O)=O` [Compound 71], the IC50 is reported as 5.4 nM.
Compound `[2H]C([2H])([2H])NC(=O)c1nnc(NC(=O)C2CC2)cc1Nc1nc(C)c(F)cc1S(C)(=O)=O` [Compound 72] has an IC50 of 1.6 nM.
Work on `[2H]C([2H])([2H])NC(=O)c1nnc(NC(=O)C2CC2)cc1Nc1ncc(OC[C@H](C)OC(F)F)cc1S(C)(=O)=O` [Compound 73] yielded an IC50 of 1.1 nM.
Work on `[2H]C([2H])([2H])NC(=O)c1nnc(NC(=O)C2CC2)cc1Nc1ncc(OC[C@H](C)OC=O)cc1S(C)(=O)=O` [Compound 74] yielded an IC50 of 2.2 nM.
`[2H]C([2H])([2H])NC(=O)c1nnc(NC(=O)C2CC2)cc1Nc1ncc(OC[C@@H](C)OC(F)F)cc1S(C)(=O)=O` [Compound 75] was tested, and the IC50 was 1.6 nM.
In the case of `[2H]C([2H])([2H])NC(=O)c1nnc(NC(=O)C2CC2)cc1Nc1ncc(OC[C@@H](C)OC=O)cc1S(C)(=O)=O` [Compound 76], the IC50 is reported as 2.5 nM.
Work on `[2H]C([2H])([2H])NC(=O)c1cnc(NC(=O)C2CC2)cc1Nc1ncc(C2CC2)cc1S(C)(=O)=O` [Compound 77] yielded an IC50 of 1.1 nM.
Work on `[2H]C([2H])([2H])NC(=O)c1nnc(NC(=O)C2CC2)cc1Nc1ncc(OCCOC(F)F)cc1S(C)(=O)=O` [Compound 78] yielded an IC50 of 0.8 nM.
`[2H]C([2H])([2H])NC(=O)c1nnc(NC(=O)C2CC2)cc1Nc1ncc(OCCOC=O)cc1S(C)(=O)=O` [Compound 79] was tested, and the IC50 was 3.3 nM.
`[2H]C([2H])([2H])NC(=O)c1cnc(NC(=O)C2CC2)cc1Nc1ncc(Cl)cc1S(C)(=O)=O` [Compound 80] showed an IC50 of 1.5 nM.
In the case of `[2H]C([2H])([2H])NC(=O)c1cnc(NC(=O)C2CC2)cc1Nc1ncc(OC(C)C)cc1S(C)(=O)=O` [Compound 81], the IC50 is reported as 0.9 nM.
Work on `[2H]C([2H])([2H])NC(=O)c1nnc(NC(=O)C2CC2)cc1Nc1ncc(N2CCOC[C@@H]2C)cc1S(C)(=O)=O` [Compound 82] yielded an IC50 of 9 nM.
With `[2H]C([2H])([2H])NC(=O)c1nnc(NC(=O)C2CC2)cc1Nc1nc(C2CC2)sc1S(C)(=O)=O` [Compound 83] the IC50 was 7.4 nM.
Compound `[2H]C([2H])([2H])NC(=O)c1nnc(NC(=O)[C@H]2C[C@@H](OC)C2)cc1Nc1ncc(C2CC2)cc1S(C)(=O)=O` [Compound 84] has an IC50 of 4.1 nM.
`[2H]C([2H])([2H])NC(=O)c1nnc(NC(=O)[C@H]2C[C@H](OC)C2)cc1Nc1ncc(C2CC2)cc1S(C)(=O)=O` [Compound 85] was tested, and the IC50 was 2.1 nM.
`[2H]C([2H])([2H])NC(=O)c1nnc(NC(=O)[C@H]2C[C@@H](NC)C2)cc1Nc1ncc(C2CC2)cc1S(C)(=O)=O` [Compound 86] was tested, and the IC50 was 30.8 nM.
`[2H]C([2H])([2H])NC(=O)c1nnc(NC(=O)[C@H]2C[C@H](NC)C2)cc1Nc1ncc(C2CC2)cc1S(C)(=O)=O` [Compound 87] showed an IC50 of 19.9 nM.
`[2H]C([2H])([2H])NC(=O)c1nnc(NC(=O)NC2CCC2)cc1Nc1ncc(OC)cc1S(C)(=O)=O` [Compound 88] was tested, and the IC50 was 0.6 nM.
For `[2H]C([2H])([2H])NC(=O)c1nnc(NC(=O)N2CCC2)cc1Nc1ncc(OC)cc1S(C)(=O)=O` [Compound 89], the IC50 was 7.9 nM.
`[2H]C([2H])([2H])CC(=O)c1nnc(NC(=O)[C@H]2CC23CC3)cc1Nc1ncccc1S(C)(=O)=O` [Compound 96] gave an IC50 of 189 nM.
With `[2H]C([2H])([2H])NC(=O)c1nnc(NC(=O)[C@H]2CC23CC3)cc1Nc1ncc(SC(F)(F)F)cc1S(C)(=O)=O` [Compound 99] the IC50 was 15.6 nM.
For `[2H]C([2H])([2H])NC(=O)c1nnc(NC(=O)[C@H]2CC23CC3)cc1Nc1nc(C)c(OC)cc1S(C)(=O)=O` [Compound 100], the IC50 was 2.1 nM.
`[2H]C([2H])([2H])NC(=O)c1nnc(NC(=O)[C@H]2CC23CC3)cc1Nc1nccc(C2CC2)c1S(C)(=O)=O` [Compound 101] gave an IC50 of 11.5 nM.
`[2H]C([2H])([2H])NC(=O)c1nnc(NC(=O)[C@H]2CC23CC3)cc1Nc1ncc(Cl)cc1S(C)(=O)=O` [Compound 102] showed an IC50 of 3.7 nM.
Work on `[2H]C([2H])([2H])NC(=O)c1nnc(NC(=O)[C@H]2CC23CC3)cc1Nc1nscc1S(C)(=O)=O` [Compound 103] yielded an IC50 of 5.7 nM.
For `[2H]C([2H])([2H])CC(=O)c1nnc(NC(=O)[C@H]2CC23CC3)cc1Nc1ncc(OC)cc1S(C)(=O)=O` [Compound 104], the IC50 was 119 nM.
`[2H]C([2H])([2H])NC(=O)c1nnc(NC(=O)[C@H]2CC23CC3)cc1Nc1ncc(C(F)F)cc1S(C)(=O)=O` [Compound 105] gave an IC50 of 6.7 nM.
Compound `[2H]C([2H])([2H])NC(=O)c1nnc(NC(=O)[C@H]2CC23CC3)cc1Nc1ncc(OC(F)F)cc1S(C)(=O)=O` [Compound 106] has an IC50 of 3.6 nM.

Reference: patent US12492184B2, “Heteroaryl compounds, preparation methods and uses thereof” (InventisBio Co., Ltd., priority 2020, dated 2025)
